PMC4663518, “Cytotoxic Indole Alkaloids against Human Leukemia Cell Lines from the Toxic Plant Peganum harmala” (Toxins, 2015)

Tests used:
U-937 cells [1] = assay: MTT cytotoxicity assay, U-937; format: cell-based, human; details: Mean ± SD
Procedure: (§1) Cytotoxicity was measured by the MTT assay.

HL-60 cells = assay: MTT cytotoxicity assay, HL-60; format: cell-based, human; details: Mean ± SD
Procedure: as §1

KG1 cells = assay: MTT cytotoxicity assay, KG1; format: cell-based, human; details: Mean ± SD
Procedure: as §1

HEL cells = assay: MTT cytotoxicity assay, HEL; format: cell-based, human; details: 48 h, Mean ± SD
Procedure: as §1

in vitro = details: human
Procedure: (§10) Meanwhile, the cytotoxicity against human embryonic kidney cells (HEK-293) was evaluated for their toxic selectivity.
(§11) Human leukemia cell lines (U-937, HL-60, KG1 and HEL) and human embryonic kidney cells (HEK-293) were purchased from American Type Culture Collection (ATCC) (Manassas, VA, USA). Cells were cultured in RPMI 1640 supplemented with 10% fetal bovine serum (Gibco Life Technologies, Grand Island, NY, USA), 50 U/mL penicillin and 100 μg/mL streptomycin and maintained in a humidified atmosphere containing 5% CO2 at 37 °C. Penicillin and streptomycin were purchased from Hyclone (Logan, UT, USA).
(§12) Cytotoxicity was measured by the MTT assay. Briefly, cells were cultured in RPMI 1640 supplemented with 10% fetal bovine serum, 10 mmol/L Hepes, 50 units/mL penicillin, 50 μg/mL streptomycin, and 100 μg /mL gentamicin and were maintained at 37 °C in 5% CO2. A total of 2.5 × 10^4 cells in growth media were placed in each well of a 96-well flat-bottom plate. After 12 h of incubation, the growth medium was replaced by media containing different concentrations of the test samples. Cytotoxicity was determined at 48 h from the MTT absorbance (490 nm) reading for each concentration compared to the control. At least three replications for each sample were used to determine the cytotoxicity.

[2] = tested on: human embryonic kidney cells HEK-293; assay: MTT cytotoxicity assay, HEK-293 (toxic selectivity); details: read-out: IC50 HEK-293; MTT, 48 h, Mean ± SD
Procedure: as §10, §11, §12

U-937 cells [3] = assay: Hoechst 33258 staining, apoptotic morphology; format: cell-based, human; details: 2.0 μmol/L, 24 h
Text: Based on the cytotoxic results, compound 8 (HMC) has pronounced cytotoxicity against human leukemia cells, especially to U-937 cells. Therefore, it was worthy of investigating the cytotoxic mechanism of HMC in U-937 cell death. To elucidate the characteristics of HMC-induced U-937 cells, morphologic changes were examined.
(§2) Figure 2 HMC initiated apoptosis in U-937 cells through mitochondrial and Caspase cascade. (A) Apoptotic U-937 cells were observed after the cells were stained by Hoechst 33258. (B) Mitochondrial transmembrane potential was reduced in U-937 cells stained by Rodamine123. […] (D–F) HMC impacted the mRNA levels and protein expressions of Bax and Bcl-2 in U-937 cells leading to the activation of caspase 3. Data are presented as means ± SD of three independent tests. * p < 0.05 versus control, ** p < 0.01 versus control.

U-937 cells [4] = assay: Mitochondrial transmembrane potential, Rhodamine 123; format: cell-based, human; details: Rhodamine 123, compared with the control group
Text: as §2
(§3) To make it clear whether HMC-induce apoptosis was related to mitochondrial function, mitochondrial transmembrane potential was assessed using Rhodamine 123. […] Meanwhile, the ATP level of mitochondria was measured in U-937 cells treated by HMC.

U-937 cells [5] = assay: ATP luminescence level; format: cell-based, human; details: 2.0 μmol/L, 24 h
Procedure: as §3
ATP luminescence was detected according to the manufactured information to evaluate the mitochondrial damage after 2.0 µmol/L HMC insulting. U-937 cells were treated without or with HMC for 24 h. After incubation, equilibrate the plates and its contents at room temperature for 30 min. One hundred microliters of cell titer reagent was added to each well in a 96-well plate and the plate was shaken gently for 2 min to induce cell lysis. The plate was incubated at room temperature for 10 min to stabilize luminescent signal and then record luminescence.

Bax mRNA = assay: RT-PCR Bax mRNA in U-937 cells; format: cell-based, human; details: 2.0 µmol/L, 24 h
Procedure: (§4) Since Bcl-2 family members were critical regulators of the mitochondrial pathway that induced intrinsic caspase activation, RT-PCR was applied to detect the mRNA level of Bax and Bcl-2 in HMC-treated U-937 cells. […] Meanwhile, Western blot analyses were carried out to observe the expressions of Bcl-2 and Bax.
(§5) Total RNA extraction for leukemia cells was performed by using Trizol method. U-937 cells were seeded in 6 well plates for 24 h, and then the cells were treated by 2.0 µmol/L HMC for another 24 h. After treatment, the cells were collected for RNA extraction. The forward and reversed primers of Bax were […] and […]. The forward and reversed primers of Bcl-2 were […] and […]. The forward and reversed primers of GAPDH were […] and […]. The reaction was conducted under the conditions with 94 °C for 30 s, 95 °C for 5 s, 62 °C for 30 s, 72 °C for 30 s for 30 cycles. Identity of the PCR-products was controlled by melting curve analysis. Standard curves were prepared from isolated PCR products by serial dilution. Data were normalized towards GAPDH expression and statistically analyzed.

Bcl-2 mRNA = assay: RT-PCR Bcl-2 mRNA in U-937 cells; format: cell-based, human; details: 2.0 µmol/L, 24 h
Procedure: as §4, §5

Bax = assay: Western blot Bax in U-937 cells; format: cell-based, human; details: 2.0 µmol/L, 24 h
Procedure: as §4
(§6) U-937 cells were treated with 2.0 µmol/L HMC for 0, 24 and 48 h, respectively. The whole cells were collected, and then the cell pellets were resuspended with RIPA buffer that contained a mixture of protease inhibitors at 4 °C for 30 min. After 14,000× g centrifugation for 15 min, the protein content of supernatant was determined by the Bio-Rad DC protein assay (Bio-Rad Laboratories, Hercules, CA, USA). […] Proteins were detected using primary antibodies, followed by HRP-conjugated secondary antibody. Labeling was detected using the ECL system (Amersham Biosciences Corp., Piscataway, NJ, USA).

Bcl-2 = assay: Western blot Bcl-2 in U-937 cells; format: cell-based, human; details: 2.0 µmol/L, 24 h
Procedure: as §4, §6

Caspase 3 = Caspase 3 activation in U-937 cells; format: cell-based, human; details: 2.0 μmol/L, 24 h
Procedure: as §4, §6

Ras = assay: Western blot Ras in U-937 cells; format: cell-based, human; details: 2.0 µmol/L, 0, 24 and 48 h
Text: (§7) Unusual activation of Ras/Raf/MAPK signaling pathway is one of main characteristic of human cancer. In this study, the Ras/Raf/MAPK pathway was investigated in HMC-induced U-937 cell apoptosis. Genistein, a broad-spectrum inhibitor of protein tyrosine kinases (PTKs), was used to detect the cell viability after HMC treatment. […] Moreover, the expressions of Ras/Raf/ERK in U-937 cells were detected after HMC treatment in different time courses.
(§8) Figure 3 Apoptosis via Ras/Raf/ERK signaling pathway in U-937 cells after HMC treatment. (A) Cell viability was assessed using MTT method in U-937 cells after pretreated by 10 µmol/L Genistein for 1 h, and then the cells were incubated without or with 2.0 µmol/L HMC for 48 h. […] Data are presented as means ± SEM of three independent tests. * p < 0.05 versus control, ** p < 0.01 versus control.
(§9) U-937 cells were treated with 2.0 µmol/L HMC for 0, 24 and 48 h, respectively. […] After 14,000× g centrifugation for 15 min, the protein content of supernatant was determined by the Bio-Rad DC protein assay (Bio-Rad Laboratories, Hercules, CA, USA). […] Proteins were detected using primary antibodies, followed by HRP-conjugated secondary antibody. Labeling was detected using the ECL system (Amersham Biosciences Corp., Piscataway, NJ, USA).

p-Raf = assay: Western blot p-Raf in U-937 cells; format: cell-based, human; details: 2.0 µmol/L, 0, 24 and 48 h
Text: as §7, §8, §9

p-ERK1/2 = assay: Western blot p-ERK1/2 in U-937 cells; format: cell-based, human; details: 2.0 µmol/L, 0, 24 and 48 h
Text: as §7, §8, §9

total ERK = assay: Western blot total ERK in U-937 cells; format: cell-based, human; details: 2.0 µmol/L, 0, 24 and 48 h
Text: as §7, §8, §9

[6] = MTT cytotoxicity assay, HEK-293 (toxic selectivity); details: human, HEK-293 cells, IC50 HEK-293, MTT, Mean ± SD
Procedure: as §10, §11, §12

U-937 cells [7] = assay: MTT cell viability, genistein pretreatment plus HMC; format: cell-based, human; details: 10 µmol/L Genistein pretreatment 1 h, then 2.0 µmol/L HMC 48 h
Text: as §7, §8

| Molecule | IC50 (U-937 cells [1]; Homo sapiens, U-937, 48 h) [µM] | IC50 (HL-60 cells; Homo sapiens, HL-60, 48 h) [µM] | IC50 (KG1 cells; Homo sapiens, KG-1, 48 h) [µM] | IC50 (HEL cells; Homo sapiens, HEL) [µM] | IC50 at 48 h (in vitro) [µM] | also measured |
| --- | --- | --- | --- | --- | --- | --- |
| COC(=O)c1nccc2c1[nH]c1cc(OC)ccc12 [Compound 7, harmic acid methyl ester] | 22.3 ± 1.4 | 44.3 ± 2.1 | 56.8 ± 2.5 | 35.2 ± 2.8 | 164 ± 8.1 |  |
| COc1ccc2c3c([nH]c2c1)C(C)=NCC3 [Compound 10, protonated harmaline] |  |  |  |  |  | IC50 (U-937 cells [1]; 48 h): 15.3 ± 0.7 µM; IC50 (HL-60 cells; 48 h): 45.7 ± 2.1 µM; IC50 (KG1 cells; 48 h): 56.9 ± 2.3 µM; IC50 (HEL cells): 21.2 ± 1.1 µM; IC50 [2]: 132 ± 4.6 µM |
| COc1ccc2c3c([nH]c2c1)C=NCC3 [Compound 8, harmalacidine] | 3.1 ± 0.2 | 61.3 ± 2.8 | 32.6 ± 1.7 | 25.7 ± 1.1 |  | morphologic alterations of cell apoptosis (membrane blebbing, nuclear condensation, granular apoptotic bodies) (U-937 cells [3]): characteristic morphologic alterations of cell apoptosis were observed; mitochondrial transmembrane potential (U-937 cells [4]): obviously reduced; ATP level (U-937 cells [5]): reduce; Bax mRNA level (Bax mRNA): increase; Bcl-2 mRNA level (Bcl-2 mRNA): reduce; expression of pro-apoptotic Bax (Bax): began to increase; expression of anti-apoptotic Bcl-2 (Bcl-2): began to decrease; Caspase 3 activation (Caspase 3): activated; expression of Ras (Ras): down-regulate; expression of p-Raf (p-Raf): down-regulate; expression of p-ERK1/2 (p-ERK1/2): down-regulate; total ERK (total ERK): kept no change; IC50 at 48 h [6]: > 200 µM |
| COc1ccc2c(c1)[nH]c1c(C)nccc12 [Compound 5, harmine] | 23.1 ± 0.9 | 71.2 ± 3.3 | 62.7 ± 2.8 | 20.3 ± 1.1 |  | IC50 at 48 h [6]: > 200 µM |
| C[C@@H]1O[C@@H](OC[C@H]2O[C@@H](OCCc3c[nH]c4ccccc34)[C@H](O)[C@@H](O)[C@@H]2O)[C@H](O)[C@H](O)[C@H]1O [Compound 2, 2-(indol-3-yl)ethyl-α-L-rhamnopyranosyl-(1 → 6)-β-D-glucopyranoside] | 80.2 ± 4.5 | 55.3 ± 3.4 | 60.2 ± 2.7 | 131 ± 4.9 | > 200 |  |
| O=c1c(-c2ccc(O)cc2)coc2cc(O)cc(O)c12 [genistein, Genistein] |  |  |  |  |  | cell viability after HMC co-incubation compared with HMC-treated only (U-937 cells [7]): significantly decrease |
| COc1ccc2c(c1)NC(=O)[C@]2(O)CCNC(C)=O [Compound 3, (S)-3-hydroxy-3-(N-acetyl-2-aminoethyl)-6-methoxyindol-2-one] | 75.3 ± 2.8 | 36.2 ± 1.1 | > 200 | 55.3 ± 3.2 | 122 ± 5.7 |  |
| COc1ccc2c3c([nH]c2c1)-c1nc2ccccc2c(=O)n1CC3 [Compound 12, 11-methyoxyl-rutaecarpine] | 55.3 ± 1.7 | 93.8 ± 6.8 | 88.1 ± 3.7 | 121 ± 5.5 | > 200 |  |
| OC[C@H]1O[C@@H](OCCc2c[nH]c3ccccc23)[C@H](O)[C@@H](O)[C@@H]1O [Compound 1, 2-(indol-3-yl)ethyl-β-D-glucopyranoside] | 52.1 ± 2.6 | 78.9 ± 3.8 | 23.1 ± 1.4 | 121 ± 5.5 | > 200 |  |
| CCc1cc2nccc3c4ccc(OC)cc4n(c1=O)c23 [Compound 11, luotonin C] | 49.6 ± 1.9 | 87.3 ± 3.7 | 113 ± 5.6 | 68.3 ± 3 | > 200 |  |
| harmol [Compound 4] |  |  |  |  |  | IC50 (U-937 cells [1]; 48 h): 46.1 ± 2 µM; IC50 (HL-60 cells; 48 h): 62 ± 2.8 µM; IC50 (KG1 cells; 48 h): 47.7 ± 2.3 µM; IC50 (HEL cells): 54.6 ± 2.3 µM; IC50 [2]: > 200 µM |
| COc1ccc2c([nH]c3c(C)nccc32)c1O[C@@H]1O[C@H](CO)[C@@H](O)[C@H](O)[C@H]1O [Compound 6, ruin] | 30.6 ± 1.2 | 60.7 ± 2.9 | 44.5 ± 2.1 | 71.6 ± 2.7 | > 200 |  |
| COc1ccc2c3c([nH]c2c1)C(C)=NCC3 [Compound 9, harmaline] | 10.6 ± 0.7 | 55.3 ± 2.4 | 46.8 ± 1.9 | 20.1 ± 1.2 |  | IC50 at 48 h [6]: 156 ± 7.2 µM |
| N.N.[Cl][Pt][Cl] [Cisplatin, cisplatin, reference compound] |  |  |  |  |  | IC50 (U-937 cells [1]; 48 h): 6.3 ± 0.5 µM; IC50 (HL-60 cells; 48 h): 13.5 ± 0.4 µM; IC50 (KG1 cells; 48 h): 4.1 ± 0.3 µM; IC50 (HEL cells): 7.7 ± 0.2 µM |
